Experimental data taken from patent US20040204577A1, “Novel peptide-forming enzyme gene” (Ajinomoto Co., Inc., priority 2003, published 2004).
Where a SMILES comes first, the peptide text is derived from it.

Key:
[1] = test system: enzyme derived from Sphingobacterium sp. strain FERM BP-8124 (SP-Sepharose HP fraction enzyme); experiment: Enzyme substrate specificity (11), (12): peptide production; format: biochemical; conditions: amides and methylamine; carboxy component 100 mM, amine component 150 mM, 0.33 units enzyme, pH 9.0, 25° C., 1.5 hours
Summary of the method: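 Peptide and oligopeptide formation catalysed by SP-Sepharose HP-fraction enzyme from Sphingobacterium sp. FERM BP-8124; carboxy components used as hydrochloride salts, 0.1% Tween-80 final added with L-Tyr-OMe. Products quantified; "+" denotes detected but unquantified (no standard), "tr" trace.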

[2] = test system: peptide-forming enzyme (Mono S fraction enzyme); experiment: Enzyme substrate specificity (1)-(10), (13), (14): peptide production; format: biochemical, Empedobacter brevis; conditions: pH 9.0, 25° C., 3 hours
Summary of the method: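 Mono S enzyme fraction in 100 mM borate buffer (pH 9.0) with 10 mM EDTA and 100 mM carboxy component (amino acid methyl esters or amides); amine components (L-glutamine, amino acids, amino acid amides or methylamine) at 150 mM, or 200 mM L-glutamine with varied esters. Reactions ran at 25° C for 2–3 hours; 0.1% Tween-80 added for Trp/Tyr-OMe.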

Produced peptide (Table 15-4) [1]: 0.3 mM | Formed peptide ([2]; 100 mM L-alanine methyl ester hydrochloride, L-amino acid 150 mM): 79.3 mM | Formed peptide ([2]; L-amino acid amide hydrochloride as carboxy component 100 mM, L-amino acid 150 mM): 7.6 mM | Formed peptide ([2]; L-amino acid methyl ester hydrochloride 100 mM, 150 mM L-glutamine): 74.6 mM
Compound: C[C@H](N)C(=O)N[C@@H](CCC(N)=O)C(=O)O [L-Ala-L-Gln, L-alanyl-L-glutamine] (H-Ala-Gln-OH)
